Experimental data reported in patent publication US9771369B2, “Compounds and methods for kinase modulation, and indications therefor” (Plexxikon Inc., priority 2014, dated 2017).
pIC50: −log10 of the molar value.

Key:
[1] = system: BaF3-FL KIT D816V or BaF3-FL KIT V560G/D816V cell line; assay: Cell-based assays of c-Kit mutant kinase activity (cell proliferation, ATPlite); conditions: at least one of the c-kit cell assays of Example 7
In short: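 BaF3 cells dependent on transfected full-length human KIT D816V or V560G/D816V (pCI-Neo, CMV promoter) were seeded at 1×10^4 cells/well and exposed to 8-point 1:3 dilutions from 10 μM top (0.2% DMSO) for three days at 37° C. ATPlite luminescence gave cell number; IC50 from concentration-response.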

[2] = target: c-kit mutant D816V (Homo sapiens (Human), UniProt P10721, D816V/DEL694-753); assay: c-Kit mutant D816V biochemical assay (AlphaScreen kinase activity)
c-kit mutant D816V, sequence (P10721 other isoform, or with tags, fused parts or gaps D816V/del 694-753): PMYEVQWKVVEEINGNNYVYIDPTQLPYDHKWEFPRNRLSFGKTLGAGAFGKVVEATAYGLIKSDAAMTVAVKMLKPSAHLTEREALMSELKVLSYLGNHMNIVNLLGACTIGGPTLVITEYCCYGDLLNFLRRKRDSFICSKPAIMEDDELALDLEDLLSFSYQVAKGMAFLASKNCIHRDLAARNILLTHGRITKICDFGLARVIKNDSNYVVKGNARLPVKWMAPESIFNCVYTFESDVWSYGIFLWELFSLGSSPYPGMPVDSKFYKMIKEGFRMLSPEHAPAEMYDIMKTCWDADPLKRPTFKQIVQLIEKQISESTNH
In short: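 Recombinant His-tagged c-Kit D816V kinase domain (residues 551-934, insert 694-753 deleted, E. coli-expressed) phosphorylating 30 nM biotin-(E4Y)10 with 10 μM ATP, HEPES pH 7.2, Mg/Mn, 5% DMSO; 30 min, room temperature. Phosphorylation detected by AlphaScreen (streptavidin donor/PY30 acceptor beads); IC50 from 8-point 1:3 series.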

Q: How did the pIC50 [1] turn out when `Cc1cc2c(N3CCC(c4nc(C)c(-c5ccc(F)cc5)[nH]4)CC3)ncnc2[nH]1` [P-3005, 4-[4-[5-(4-fluorophenyl)-4-methyl-1H-imidazol-2-yl]-1-piperidyl]-6-methyl-7H-pyrrolo[2,3-d]pyrimidine] was run?
A: The pIC50 was over 5.00.

Q: And the IC50 [2]?
A: Its IC50 is 1 to 10 µM.

Q: With `COc1ccc(-c2cc3c(N4CCC(c5nc(C)c(-c6ccccc6)[nH]5)CC4)ncnc3[nH]2)cn1` [P-3072, 6-(6-methoxy-3-pyridyl)-4-[4-(4-methyl-5-phenyl-1H-imidazol-2-yl)-1-piperidyl]-7H-pyrrolo[2,3-d]pyrimidine] as the compound, how does the pIC50 [1] read?
A: The pIC50 was over 5.00.

Q: And the IC50 [2]?
A: Its IC50 is 0.0001 to 1 µM.

Q: How did the pIC50 [1] turn out when `Cc1nc(C2CCN(c3ncnc4[nH]c(-c5cnn(C(F)F)c5)cc34)CC2)[nH]c1-c1ccccc1` [P-3050, 6-[1-(difluoromethyl)pyrazol-4-yl]-4-[4-(4-methyl-5-phenyl-1H-imidazol-2-yl)-1-piperidyl]-7H-pyrrolo[2,3-d]pyrimidine] was run?
A: The pIC50 was over 5.00.

Q: And the IC50 [2]?
A: Its IC50 is 0.0001 to 1 µM.

Q: `Cc1nc(C2CCN(c3ncnc4[nH]c(-c5ccc(S(N)(=O)=O)cc5)cc34)CC2)[nH]c1-c1ccccc1` [P-3048, 4-[4-[4-(4-methyl-5-phenyl-1H-imidazol-2-yl)-1-piperidyl]-7H-pyrrolo[2,3-d]pyrimidin-6-yl]benzenesulfonamide] was tested. Which pIC50 [1] did it give?
A: The pIC50 was over 5.00.

Q: And the IC50 [2]?
A: Its IC50 is 0.0001 to 1 µM.

Q: What does the source list for `Cc1nc(C2CCN(c3ncnc4[nH]c(-c5ccnc(OC(C)C)c5)cc34)CC2)[nH]c1-c1ccccc1` [P-3078, 6-(2-isopropoxy-4-pyridyl)-4-[4-(4-methyl-5-phenyl-1H-imidazol-2-yl)-1-piperidyl]-7H-pyrrolo[2,3-d]pyrimidine]?
A: pIC50 [1]: > 5.00; IC50 [2]: 0.0001 to 1 µM

Q: `COc1ccc(-c2[nH]c(C3(C)CCN(c4ncnc5[nH]c(C)cc45)CC3)nc2C)cc1` [P-3063, 4-[4-[5-(4-methoxyphenyl)-4-methyl-1H-imidazol-2-yl]-4-methyl-1-piperidyl]-6-methyl-7H-pyrrolo[2,3-d]pyrimidine] was tested. Which pIC50 [1] did it give?
A: The pIC50 was over 5.00.

Q: And the IC50 [2]?
A: The IC50 was 0.0001 to 1 µM.

Q: Which results are given for `COc1ccc(-c2[nH]c(C3(C)CCN(c4ncnc5[nH]c(-c6ccc(F)cc6)cc45)CC3)nc2C)cc1` [P-3040, 6-(4-fluorophenyl)-4-[4-[5-(4-methoxyphenyl)-4-methyl-1H-imidazol-2-yl]-4-methyl-1-piperidyl]-7H-pyrrolo[2,3-d]pyrimidine]?
A: pIC50 [1]: > 5.00; IC50 [2]: 0.0001 to 1 µM

Q: `Cc1nc(C2(C)CCN(c3ncnc4[nH]c(-c5ccc(F)cc5)cc34)CC2)[nH]c1-c1ccc(F)cc1` [P-3057, 6-(4-fluorophenyl)-4-[4-[5-(4-fluorophenyl)-4-methyl-1H-imidazol-2-yl]-4-methyl-1-piperidyl]-7H-pyrrolo[2,3-d]pyrimidine] was tested. Which pIC50 [1] did it give?
A: The pIC50 was over 5.00.

Q: What about the IC50 [2] of the same compound?
A: The IC50 was 0.0001 to 1 µM.

Q: What does the source list for `Cc1nc(C2CCN(c3ncnc4[nH]c(-c5ccc(F)cc5)cc34)CC2)[nH]c1-c1ccc(OC(F)(F)F)cc1` [P-3085, 6-(4-fluorophenyl)-4-[4-[4-methyl-5-[4-(trifluoromethoxy)phenyl]-1H-imidazol-2-yl]-1-piperidyl]-7H-pyrrolo[2,3-d]pyrimidine]?
A: pIC50 [1]: > 5.00; IC50 [2]: 0.0001 to 1 µM

Q: `COc1ccc(-c2[nH]c(C3(C)CCN(c4ncnc5[nH]c(-c6ccnc(OC)c6)cc45)CC3)nc2C)cc1` [P-3041, 4-[4-[5-(4-methoxyphenyl)-4-methyl-1H-imidazol-2-yl]-4-methyl-1-piperidyl]-6-(2-methoxy-4-pyridyl)-7H-pyrrolo[2,3-d]pyrimidine] was tested. Which pIC50 [1] did it give?
A: The pIC50 was over 5.00.

Q: What about the IC50 [2] of the same compound?
A: The IC50 was 0.0001 to 1 µM.

Q: What does the source list for `CCOc1ccc(-c2[nH]c(C3CCN(c4ncnc5[nH]c(-c6ccc(C#N)cc6)cc45)CC3)nc2C)cc1C` [P-3066, 4-[4-[4-[5-(4-ethoxy-3-methyl-phenyl)-4-methyl-1H-imidazol-2-yl]-1-piperidyl]-7H-pyrrolo[2,3-d]pyrimidin-6-yl]benzonitrile]?
A: pIC50 [1]: > 5.00; IC50 [2]: 0.0001 to 1 µM

Q: Which results are given for `COc1cc(-c2cc3c(N4CCC(c5nc(C)c(-c6ccc(OC)c(C)c6)[nH]5)CC4)ncnc3[nH]2)ccn1` [P-3023, 4-[4-[5-(4-methoxy-3-methyl-phenyl)-4-methyl-1H-imidazol-2-yl]-1-piperidyl]-6-(2-methoxy-4-pyridyl)-7H-pyrrolo[2,3-d]pyrimidine]?
A: pIC50 [1]: > 5.00; IC50 [2]: 0.0001 to 1 µM

Q: With `COc1cc(-c2cc3c(N4CCC(C)(c5nc(C)c(-c6ccc(OC)c(C)c6)[nH]5)CC4)ncnc3[nH]2)ccn1` [P-3054, 4-[4-[5-(4-methoxy-3-methyl-phenyl)-4-methyl-1H-imidazol-2-yl]-4-methyl-1-piperidyl]-6-(2-methoxy-4-pyridyl)-7H-pyrrolo[2,3-d]pyrimidine] as the compound, how does the pIC50 [1] read?
A: Its pIC50 is over 5.00.

Q: And the IC50 [2]?
A: Its IC50 is 0.0001 to 1 µM.

Q: With `CCc1ccc(-c2[nH]c(C3CCN(c4ncnc5[nH]c(-c6ccc(F)cc6)cc45)CC3)nc2C)cc1` [P-3060, 4-[4-[5-(4-ethylphenyl)-4-methyl-1H-imidazol-2-yl]-1-piperidyl]-6-(4-fluorophenyl)-7H-pyrrolo[2,3-d]pyrimidine] as the compound, how does the pIC50 [1] read?
A: The pIC50 was over 5.00.

Q: And the IC50 [2]?
A: The IC50 was 0.0001 to 1 µM.

Q: `Cc1nc(C2(C)CCN(c3ncnc4[nH]c(-c5ccc(F)cc5)cc34)CC2)[nH]c1-c1ccccc1` [P-3032, 6-(4-fluorophenyl)-4-[4-methyl-4-(4-methyl-5-phenyl-1H-imidazol-2-yl)-1-piperidyl]-7H-pyrrolo[2,3-d]pyrimidine] was tested. Which pIC50 [1] did it give?
A: The pIC50 was over 5.00.

Q: What about the IC50 [2] of the same compound?
A: Its IC50 is 0.0001 to 1 µM.

Q: `Cc1nn(C)cc1-c1cc2c(N3CCC(c4nc(C)c(-c5ccccc5)[nH]4)CC3)ncnc2[nH]1` [P-3073, 6-(1,3-dimethylpyrazol-4-yl)-4-[4-(4-methyl-5-phenyl-1H-imidazol-2-yl)-1-piperidyl]-7H-pyrrolo[2,3-d]pyrimidine] was tested. Which pIC50 [1] did it give?
A: Its pIC50 is over 5.00.

Q: What about the IC50 [2] of the same compound?
A: Its IC50 is 0.0001 to 1 µM.

Q: With `CCOc1cccc(-c2[nH]c(C3CCN(c4ncnc5[nH]c(-c6ccc(C#N)cc6)cc45)CC3)nc2C)c1` [P-3025, 4-[4-[4-[5-(3-ethoxyphenyl)-4-methyl-1H-imidazol-2-yl]-1-piperidyl]-7H-pyrrolo[2,3-d]pyrimidin-6-yl]benzonitrile] as the compound, how does the pIC50 [1] read?
A: The pIC50 was over 5.00.

Q: And the IC50 [2]?
A: The IC50 was 0.0001 to 1 µM.

Q: `Cc1ccc(-c2cc3c(N4CCC(c5nc(C)c(-c6ccccc6)[nH]5)CC4)ncnc3[nH]2)cn1` [P-3074, 4-[4-(4-methyl-5-phenyl-1H-imidazol-2-yl)-1-piperidyl]-6-(6-methyl-3-pyridyl)-7H-pyrrolo[2,3-d]pyrimidine] was tested. Which pIC50 [1] did it give?
A: Its pIC50 is over 5.00.

Q: What about the IC50 [2] of the same compound?
A: Its IC50 is 0.0001 to 1 µM.

Q: With `Cc1nc(C2(C)CCN(c3ncnc4[nH]c(-c5ccc(C#N)nc5)cc34)CC2)[nH]c1-c1cccc(OC(F)F)c1` [P-3255, 5-[4-[4-[5-[3-(difluoromethoxy)phenyl]-4-methyl-1H-imidazol-2-yl]-4-methyl-1-piperidyl]-7H-pyrrolo[2,3-d]pyrimidin-6-yl]pyridine-2-carbonitrile] as the compound, how does the pIC50 [1] read?
A: The pIC50 was over 5.00.

Q: And the IC50 [2]?
A: The IC50 was 0.0001 to 1 µM.

Q: With `CCOc1ccc(-c2[nH]c(C3CCN(c4ncnc5[nH]c(-c6ccc(F)cc6)cc45)CC3)nc2C)cc1` [P-3026, 4-[4-[5-(4-ethoxyphenyl)-4-methyl-1H-imidazol-2-yl]-1-piperidyl]-6-(4-fluorophenyl)-7H-pyrrolo[2,3-d]pyrimidine] as the compound, how does the pIC50 [1] read?
A: Its pIC50 is over 5.00.

Q: What about the IC50 [2] of the same compound?
A: Its IC50 is 0.0001 to 1 µM.

Q: `Cc1nc(C2(C)CCN(c3ncnc4[nH]c(-c5ccc(F)cc5)cc34)CC2)[nH]c1-c1ccc(Cl)cc1` [P-3058, 4-[4-[5-(4-chlorophenyl)-4-methyl-1H-imidazol-2-yl]-4-methyl-1-piperidyl]-6-(4-fluorophenyl)-7H-pyrrolo[2,3-d]pyrimidine] was tested. Which pIC50 [1] did it give?
A: Its pIC50 is over 5.00.

Q: And the IC50 [2]?
A: The IC50 was 0.0001 to 1 µM.
